ChEMBL document CHEMBL5329166, “Discovery of imeglimin-inspired novel 1,3,5-triazine derivatives as antidiabetic agents in streptozotocin-induced diabetes in Wistar rats via inhibition of DPP-4” (RSC Med Chem, 2023)
The source made the active and inactive calls. No cut-off for these calls is given here.

How the values were obtained:
Rattus norvegicus [1] = assay: Antioxidant activity in high fat diet/STZ induced diabetic Wistar rat model assessed as absence of feathery hepatocyte deterioration at 30 mg/kg, IG pretreated with STZ for 21 days followed by compound treatment once daily for 21 days by H and E staining based microscopic analysis; assay type: functional, organism-based; details: time 21.0 day
Rattus norvegicus [2] = assay: Antioxidant activity in high fat diet/STZ induced diabetic Wistar rat model assessed as reduction in mesangial cellularity and matrix at 3 mg/kg, IG pretreated with STZ for 21 days followed by compound treatment once daily for 21 days by H and E staining based microscopic analysis; assay type: functional, organism-based; details: time 21.0 day
Rattus norvegicus [3] = assay: Antioxidant activity in high fat diet/STZ induced diabetic Wistar rat model assessed as reduction in mesangial cellularity and matrix at 10 to 30 mg/kg, IG pretreated with STZ for 21 days followed by compound treatment once daily for 21 days by H and E staining based microscopic analysis; assay type: functional, organism-based; details: dose 10-30 mg/kg, time 21.0 day
[4] = Acute toxicity in rat assessed as sleep and sluggish effect at 300 to 1000 mg/kg, po measured after 6 hrs; assay type: organism-based; details: in vivo, dose 300-1000 mg/kg
Rattus norvegicus [5] = assay: (§1) Antioxidant activity in high fat diet/STZ induced diabetic Wistar rat model assessed as healing of hepatocyte cytoplasm at 3 to 10 mg/kg, IG pretreated with STZ for 21 days followed by compound treatment once daily for 21 days by H and E staining based microscopic analysis; assay type: functional, organism-based; details: dose 3-10 mg/kg, time 21.0 day
[6] = Antioxidant activity assessed as DPPH scavenging activity incubated for 30 mins by absorbance based assay; assay type: functional; details: dose 25-100 µg/ml
Rattus norvegicus [7] = assay: Antidiabetic activity in high fat diet/STZ induced diabetic Wistar rat model assessed as increase in HDL level at 3 to 30 mg/kg, IG pretreated with STZ for 21 days followed by compound treatment once daily for 21 days by spectrophotometric analysis; assay type: functional, organism-based; details: dose 3-30 mg/kg, time 21.0 day
[8] = Antioxidant activity assessed as H2O2 scavenging activity at 73.43 ug/ml incubated for 10 mins by absorbance based assay; assay type: functional; details: dose 73.43 µg/ml
Rattus norvegicus [9] = assay: Antidiabetic activity in high fat diet/STZ induced diabetic Wistar rat model assessed as increase in fasting serum insulin at 3 to 30 mg/kg, IG pretreated with STZ for 21 days followed by compound treatment once daily for 21 days by chemiluminescence immunoassay; assay type: functional, organism-based; details: dose 3-30 mg/kg, time 21.0 day
Rattus norvegicus [10] = assay: as §1, with “recovery” for “healing”, “pancreatic epithelial cell damage and acini architecture” for “hepatocyte cytoplasm”, “at” for “at 3 to”; assay type: functional, organism-based; details: time 21.0 day
Rattus norvegicus [11] = assay: Antioxidant activity in high fat diet/STZ induced diabetic Wistar rat model assessed as healing of hepatocyte nucleus at 3 mg/kg, IG pretreated with STZ for 21 days followed by compound treatment once daily for 21 days by H and E staining based microscopic analysis; assay type: functional, organism-based; details: time 21.0 day
Rattus norvegicus [12] = assay: Antidiabetic activity in high fat diet/STZ induced diabetic Wistar rat model assessed as reduction in triglyceride level at 3 to 30 mg/kg, IG pretreated with STZ for 21 days followed by compound treatment once daily for 21 days by spectrophotometric analysis; assay type: functional, organism-based; details: dose 3-30 mg/kg, time 21.0 day
Rattus norvegicus [13] = assay: Antidiabetic activity in high fat diet/STZ induced diabetic Wistar rat model assessed as reduction in LDL level at 3 to 30 mg/kg, IG pretreated with STZ for 21 days followed by compound treatment once daily for 21 days by spectrophotometric analysis; assay type: functional, organism-based; details: dose 3-30 mg/kg, time 21.0 day
Rattus norvegicus [14] = assay: Antioxidant activity in high fat diet/STZ induced diabetic Wistar rat model assessed as healing of hepatocyte central veins at 3 to 10 mg/kg, IG pretreated with STZ for 21 days followed by compound treatment once daily for 21 days by H and E staining based microscopic analysis; assay type: functional, organism-based; details: dose 3-10 mg/kg, time 21.0 day
Rattus norvegicus [15] = assay: Antioxidant activity in IG dosed high fat diet/STZ induced diabetic Wistar rat model assessed as reversal of GSH reduction in liver pretreated with STZ for 21 days followed by compound treatment once daily for 21 days by spectrophotometric analysis; assay type: functional, organism-based; details: dose 3-30 mg/kg, time 21.0 day
[16] = Antioxidant activity assessed as H2O2 scavenging activity incubated for 10 mins by absorbance based assay; assay type: functional; details: dose 25-100 µg/ml
[17] = Acute toxicity in rat assessed as change in salivation at 300 to 1000 mg/kg, po measured after 6 hrs; assay type: organism-based; details: in vivo, dose 300-1000 mg/kg
Rattus norvegicus [18] = assay: Antioxidant activity in IG dosed high fat diet/STZ induced diabetic Wistar rat model assessed as reversal of SOD reduction in kidney pretreated with STZ for 21 days followed by compound treatment once daily for 21 days by spectrophotometric analysis; assay type: functional, organism-based; details: dose 3-30 mg/kg, time 21.0 day
Rattus norvegicus [19] = assay: Antioxidant activity in IG dosed high fat diet/STZ induced diabetic Wistar rat model assessed as reversal of CAT reduction in liver pretreated with STZ for 21 days followed by compound treatment once daily for 21 days by spectrophotometric analysis; assay type: functional, organism-based; details: dose 3-30 mg/kg, time 21.0 day
Rattus norvegicus [20] = assay: Antioxidant activity in high fat diet/STZ induced diabetic Wistar rat model assessed as reduction in plasma cells in renal stroma at 3 to 3 to 30 mg/kg, IG pretreated with STZ for 21 days followed by compound treatment once daily for 21 days by H and E staining based microscopic analysis; assay type: functional, organism-based; details: dose 3-30 mg/kg, time 21.0 day
Rattus norvegicus [21] = assay: Antidiabetic activity in high fat diet/STZ induced diabetic Wistar rat model assessed as reduction in total cholesterol level at 3 to 30 mg/kg, IG pretreated with STZ for 21 days followed by compound treatment once daily for 21 days by spectrophotometric analysis; assay type: functional, organism-based; details: dose 3-30 mg/kg, time 21.0 day
[22] = Acute toxicity in rat assessed as change in salivation at 2000 mg/kg, po measured after 30 mins to 4 hrs; assay type: organism-based; details: in vivo, time 0.5-4 hrs
Rattus norvegicus [23] = assay: Antioxidant activity in high fat diet/STZ induced diabetic Wistar rat model assessed as repair of pancreatic epithelial cells with reduced fibrosis at 30 mg/kg, IG pretreated with STZ for 21 days followed by compound treatment once daily for 21 days by H and E staining based microscopic analysis; assay type: functional, organism-based; details: time 21.0 day

Nc1nc(NC2=NC(c3ccccc3)=CC(c3cccc([N+](=O)[O-])c3)O2)nc(N2CCOCC2)n1 (stereo not drawn)
Activity (Rattus norvegicus [1]): Active
Activity (Rattus norvegicus [2]): inactive
Activity (Rattus norvegicus [3]): Active
Activity [4]: Non-Toxic
Activity (Rattus norvegicus [5]): Active
Activity [6]: Dose-Dependent Effect
Activity (Rattus norvegicus [7]): Active
Activity [8]: Active
Activity (Rattus norvegicus [9]): Active
Activity (Rattus norvegicus [10]): Active
Activity (Rattus norvegicus [11]): Active
Activity (Rattus norvegicus [12]): Active
Activity (Rattus norvegicus [13]): Active
Activity (Rattus norvegicus [14]): Active
Activity (Rattus norvegicus [15]): Dose-Dependent Effect
Activity [16]: Dose-Dependent Effect
Activity [17]: Non-Toxic
Activity (Rattus norvegicus [18]): Dose-Dependent Effect
Activity (Rattus norvegicus [19]): Dose-Dependent Effect
Activity (Rattus norvegicus [20]): Active
Activity (Rattus norvegicus [21]): Active
Activity [22]: Non-Toxic
Activity (Rattus norvegicus [23]): Active
